Counter-ions that a name gives are not always drawn.
Legend:
PRC2-EZH1 (WT EZH1) = PRC2-EZH1 (WT EZH1) (Homo sapiens, UniProt Q92800); assay: EZH1 methyltransferase inhibitory activity evaluation
Protocol: EZH1 Methyltransferase Inhibitory Activity Evaluation
(§1) Then, the residual radioactivity was measured using TopCount NXT HTS (PerkinElmer, Inc., model C384V01).

[1] = test system: Intracellular H3K27me3 in HCT116 cells; assay: Intracellular H3K27me3 inhibitory activity evaluation; type: cell-based; conditions: Homo sapiens, HCT-116, 72 h, 3 days, AlphaLISA, read-out: Test Example 3 H3K27me3 inhibition (HCT116) IC50
Protocol: The HCT116 cells were purchased from American Type Culture Collection (ATCC). […] Intracellular H3K27me3 was quantified using AlphaLISA H3K27me3 Cellular Detection Kit (PerkinElmer, Inc., #AL722F). The cells thus cultured in each well were washed with 100 μL of PBS. Cell-Histone Lysis buffer diluted 6-fold with PBS was added thereto at 80 μL/well, and the plate was then incubated at room temperature for 15 minutes while shaken. Then, Cell-Histone Extraction buffer was added thereto at 40 μL/well, and the plate was incubated at room temperature for 10 minutes while shaken. […] An AlphaLISA anti-H3K27me3 Acceptor beads/Biotinylated Antibody anti-Histone H3 (C-ter) mixed solution was added thereto at 3.3 μL/well, and the plate was incubated at room temperature for 60 minutes. Then, Streptavidin (SA)-coated Donor beads were added thereto at 3.3 μL/well, and the plate was incubated at room temperature for 30 minutes with the plate shielded from light.

PRC2-EZH2 (WT EZH2) = molecular target: T1, PRC2-EZH2 (WT EZH2) (Homo sapiens, UniProt Q15910); assay: EZH2 methyltransferase inhibitory activity evaluation; type: biochemical; conditions: PRC2-EZH2, biotin-H3 peptide, 3H-SAM, 2 hours
T1 construct: made in house
T1 sequence (Q15910 whole entry): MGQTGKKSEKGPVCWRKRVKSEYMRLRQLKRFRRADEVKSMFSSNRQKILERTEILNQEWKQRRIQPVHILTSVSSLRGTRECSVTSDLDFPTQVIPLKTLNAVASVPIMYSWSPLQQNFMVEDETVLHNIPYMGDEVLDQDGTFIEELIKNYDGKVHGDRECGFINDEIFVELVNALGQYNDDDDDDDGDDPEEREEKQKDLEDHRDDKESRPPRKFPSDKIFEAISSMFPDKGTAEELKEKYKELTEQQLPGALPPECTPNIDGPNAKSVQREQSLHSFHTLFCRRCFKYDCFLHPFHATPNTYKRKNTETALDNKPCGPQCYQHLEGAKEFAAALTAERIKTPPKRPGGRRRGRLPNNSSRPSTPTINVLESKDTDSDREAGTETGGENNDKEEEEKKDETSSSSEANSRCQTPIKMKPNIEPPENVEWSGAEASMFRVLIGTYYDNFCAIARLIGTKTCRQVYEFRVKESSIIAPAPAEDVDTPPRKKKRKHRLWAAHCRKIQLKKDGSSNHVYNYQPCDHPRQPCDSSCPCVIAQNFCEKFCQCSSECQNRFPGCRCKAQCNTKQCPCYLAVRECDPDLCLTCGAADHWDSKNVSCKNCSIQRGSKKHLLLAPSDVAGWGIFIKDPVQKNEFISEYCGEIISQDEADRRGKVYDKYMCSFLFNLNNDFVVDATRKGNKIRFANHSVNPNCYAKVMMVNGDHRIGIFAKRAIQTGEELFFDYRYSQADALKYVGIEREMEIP
T1 sequence (O75530 whole entry partner): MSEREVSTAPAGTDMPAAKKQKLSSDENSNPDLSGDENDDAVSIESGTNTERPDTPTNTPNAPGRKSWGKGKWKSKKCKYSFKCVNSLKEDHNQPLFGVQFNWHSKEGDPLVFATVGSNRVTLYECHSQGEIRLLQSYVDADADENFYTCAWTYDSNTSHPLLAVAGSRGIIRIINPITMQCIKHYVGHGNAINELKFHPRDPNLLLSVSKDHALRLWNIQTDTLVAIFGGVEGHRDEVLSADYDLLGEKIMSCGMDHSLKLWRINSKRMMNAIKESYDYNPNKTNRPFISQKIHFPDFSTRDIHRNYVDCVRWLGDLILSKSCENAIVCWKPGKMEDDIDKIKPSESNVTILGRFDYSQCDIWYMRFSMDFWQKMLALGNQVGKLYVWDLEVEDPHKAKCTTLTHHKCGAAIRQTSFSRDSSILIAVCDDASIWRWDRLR
T1 sequence (Q15022 whole entry partner): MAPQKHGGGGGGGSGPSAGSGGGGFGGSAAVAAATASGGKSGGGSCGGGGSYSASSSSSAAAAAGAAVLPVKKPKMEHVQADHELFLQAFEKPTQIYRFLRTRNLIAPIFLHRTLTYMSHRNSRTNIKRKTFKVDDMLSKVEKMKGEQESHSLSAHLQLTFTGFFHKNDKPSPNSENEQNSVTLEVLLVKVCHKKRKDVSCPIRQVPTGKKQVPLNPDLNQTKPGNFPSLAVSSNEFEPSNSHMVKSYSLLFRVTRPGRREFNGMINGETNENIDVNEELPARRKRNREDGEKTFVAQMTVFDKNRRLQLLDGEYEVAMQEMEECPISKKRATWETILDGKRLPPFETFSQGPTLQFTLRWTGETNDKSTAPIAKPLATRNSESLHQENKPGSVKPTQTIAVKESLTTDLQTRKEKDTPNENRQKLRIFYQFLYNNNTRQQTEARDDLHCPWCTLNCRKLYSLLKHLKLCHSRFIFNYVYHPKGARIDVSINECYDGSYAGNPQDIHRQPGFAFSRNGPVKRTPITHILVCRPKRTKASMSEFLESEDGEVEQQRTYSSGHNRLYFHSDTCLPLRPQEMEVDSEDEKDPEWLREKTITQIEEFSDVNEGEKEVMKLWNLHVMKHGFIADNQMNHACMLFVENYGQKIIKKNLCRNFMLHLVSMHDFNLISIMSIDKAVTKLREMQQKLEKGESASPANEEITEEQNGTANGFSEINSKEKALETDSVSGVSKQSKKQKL
Protocol: EZH2 Methyltransferase Inhibitory Activity Evaluation
as §1

Sequence of PRC2-EZH1 (WT EZH1) (Q92800 whole entry): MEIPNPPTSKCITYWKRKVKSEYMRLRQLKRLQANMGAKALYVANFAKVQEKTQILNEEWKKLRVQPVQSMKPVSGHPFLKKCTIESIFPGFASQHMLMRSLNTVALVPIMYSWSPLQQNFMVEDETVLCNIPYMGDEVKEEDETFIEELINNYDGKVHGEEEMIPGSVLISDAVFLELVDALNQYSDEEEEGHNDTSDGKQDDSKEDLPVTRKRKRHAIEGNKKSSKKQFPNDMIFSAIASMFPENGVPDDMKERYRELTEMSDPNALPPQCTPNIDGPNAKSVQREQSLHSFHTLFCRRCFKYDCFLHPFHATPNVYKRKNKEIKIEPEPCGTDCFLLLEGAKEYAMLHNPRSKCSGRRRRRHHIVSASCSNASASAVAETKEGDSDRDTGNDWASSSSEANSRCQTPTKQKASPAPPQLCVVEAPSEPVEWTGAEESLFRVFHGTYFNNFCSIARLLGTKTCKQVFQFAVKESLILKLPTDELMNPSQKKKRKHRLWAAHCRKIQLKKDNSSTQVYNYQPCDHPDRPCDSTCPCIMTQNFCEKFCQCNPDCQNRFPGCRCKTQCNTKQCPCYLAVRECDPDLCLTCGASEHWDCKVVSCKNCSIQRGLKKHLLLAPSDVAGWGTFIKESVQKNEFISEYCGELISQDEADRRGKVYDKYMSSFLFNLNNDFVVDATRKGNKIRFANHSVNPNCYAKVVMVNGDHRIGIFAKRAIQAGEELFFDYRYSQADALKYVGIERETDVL
Sequence of PRC2-EZH1 (WT EZH1) (O75530 whole entry partner): as the sequence (O75530 whole entry partner) above
Sequence of PRC2-EZH1 (WT EZH1) (Q15022 whole entry partner): as the sequence (Q15022 whole entry partner) above
Sequence of PRC2-EZH1 (WT EZH1) (Q09028 whole entry partner): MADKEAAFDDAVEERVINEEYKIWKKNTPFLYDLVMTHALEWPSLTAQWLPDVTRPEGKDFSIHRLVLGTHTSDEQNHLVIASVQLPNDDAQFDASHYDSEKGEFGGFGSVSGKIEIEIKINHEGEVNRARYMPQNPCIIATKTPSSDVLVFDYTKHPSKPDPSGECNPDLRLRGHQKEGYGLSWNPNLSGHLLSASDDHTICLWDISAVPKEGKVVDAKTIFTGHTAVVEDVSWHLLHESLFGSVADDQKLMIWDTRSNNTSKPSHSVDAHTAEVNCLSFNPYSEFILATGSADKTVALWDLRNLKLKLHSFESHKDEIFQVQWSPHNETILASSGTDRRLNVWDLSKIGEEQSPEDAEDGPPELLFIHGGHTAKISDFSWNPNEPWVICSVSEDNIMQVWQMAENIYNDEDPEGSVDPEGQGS
Sequence of PRC2-EZH1 (WT EZH1) (Q6ZN18 whole entry partner): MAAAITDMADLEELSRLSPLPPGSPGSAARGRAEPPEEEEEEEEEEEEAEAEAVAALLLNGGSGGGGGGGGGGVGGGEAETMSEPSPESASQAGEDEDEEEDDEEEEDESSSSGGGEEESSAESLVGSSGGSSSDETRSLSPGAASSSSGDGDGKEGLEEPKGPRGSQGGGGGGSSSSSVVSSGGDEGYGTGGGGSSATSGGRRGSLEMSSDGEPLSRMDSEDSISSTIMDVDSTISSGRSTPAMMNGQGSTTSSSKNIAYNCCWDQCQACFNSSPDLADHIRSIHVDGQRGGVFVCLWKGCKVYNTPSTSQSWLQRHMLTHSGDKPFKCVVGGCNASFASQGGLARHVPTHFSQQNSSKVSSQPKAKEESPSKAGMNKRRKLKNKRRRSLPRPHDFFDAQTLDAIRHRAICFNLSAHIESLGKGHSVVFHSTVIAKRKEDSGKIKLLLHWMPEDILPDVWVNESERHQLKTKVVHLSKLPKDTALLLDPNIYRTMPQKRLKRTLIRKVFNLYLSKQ

SMILES	IC50 (PRC2-EZH1 (WT EZH1))	IC50 [1]	IC50 (PRC2-EZH2 (WT EZH2))
COc1cc(C(=O)NCc2c(C)cc(C)[nH]c2=O)c(C)c2c1OC(C)([C@H]1CC[C@H](N(C)C)CC1)O2 (relative stereo) [Example 50, 2-[trans-4-(Dimethylamino)cyclohexyl]-N-[(4,6-dimethyl-2-oxo-1,2-dihydropyridin-3-yl)methyl]-7-methoxy-2,4-dimethyl-1,3-benzodioxole-5-carboxamide]	53 nM	7.1 nM	20 nM
Cc1cc(C)c(CNC(=O)c2cc(Cl)c3c(c2Cl)OC(C)([C@H]2CC[C@H](N(C)C)CC2)O3)c(=O)[nH]1 (relative stereo) [Example 53, 4,7-Dichloro-2-[trans-4-(dimethylamino)cyclohexyl]-N-[(4,6-dimethyl-2-oxo-1,2-dihydropyridin-3-yl)methyl]-2-methyl-1,3-benzodioxole-5-carboxamide]	26 nM	0.63 nM	13 nM
Cc1cc(C)c(CNC(=O)c2cc(C3=CCCC3)c3c(c2C)OC(C)([C@H]2CC[C@H](N(C)C)CC2)O3)c(=O)[nH]1 (relative stereo) [Example 58, 7-(Cyclopenten-1-yl)-2-[trans-4-(dimethylamino)cyclohexyl]-N-[(4,6-dimethyl-2-oxo-1,2-dihydropyridin-3-yl)methyl]-2,4-dimethyl-1,3-benzodioxole-5-carboxamide]	4.4 nM	2.9 nM	10 nM
Cc1cc(C)c(CNC(=O)c2cc(-c3ccccc3)c3c(c2C)OC(C)([C@H]2CC[C@H](N(C)C)CC2)O3)c(=O)[nH]1 (relative stereo) [Example 59, 2-[trans-4-(Dimethylamino)cyclohexyl]-N-[(4,6-dimethyl-2-oxo-1,2-dihydropyridin-3-yl)methyl]-2,4-dimethyl-7-phenyl-1,3-benzodioxole-5-carboxamide]	5.7 nM	1.8 nM	8.7 nM
Cc1cc(C)c(CNC(=O)c2cc(C3=CCCCC3)c3c(c2C)OC(C)([C@H]2CC[C@H](N(C)C)CC2)O3)c(=O)[nH]1 (relative stereo) [Example 60, 7-(Cyclohexen-1-yl)-2-[trans-4-(dimethylamino)cyclohexyl]-N-[(4,6-dimethyl-2-oxo-1,2-dihydropyridin-3-yl)methyl]-2,4-dimethyl-1,3-benzodioxole-5-carboxamide]	7.3 nM	3.7 nM	14 nM
CCN1CCN(c2ccc(-c3cc(C(=O)NCc4c(C)cc(C)[nH]c4=O)c(C)c4c3OC(C)([C@H]3CC[C@H](N(C)C)CC3)O4)cn2)CC1 (relative stereo) [Example 61, 2-[trans-4-(Dimethylamino)cyclohexyl]-N-[(4,6-dimethyl-2-oxo-1,2-dihydropyridin-3-yl)methyl]-7-[6-(4-ethylpiperazin-1-yl)-3-pyridyl]-2,4-dimethyl-1,3-benzodioxole-5-carboxamide]	8 nM	10 nM	21 nM
Cc1cc(C)c(CNC(=O)c2cc(C3=CCOCC3)c3c(c2C)OC(C)([C@H]2CC[C@H](N(C)C)CC2)O3)c(=O)[nH]1 (relative stereo) [Example 62, 7-(3,6-Dihydro-2H-pyran-4-yl)-2-[trans-4-(dimethylamino)cyclohexyl]-N-[(4,6-dimethyl-2-oxo-1,2-dihydropyridin-3-yl)methyl]-2,4-dimethyl-1,3-benzodioxole-5-carboxamide]	11 nM	5.5 nM	6.6 nM
Cc1cc(C)c(CNC(=O)c2cc(-c3ccc(CN4CCOCC4)nc3)c3c(c2C)OC(C)([C@H]2CC[C@H](N(C)C)CC2)O3)c(=O)[nH]1 (relative stereo) [Example 63, 2-[trans-4-(Dimethylamino)cyclohexyl]-N-[(4,6-dimethyl-2-oxo-1,2-dihydropyridin-3-yl)methyl]-2,4-dimethyl-7-[6-(morpholinomethyl)-3-pyridyl]-1,3-benzodioxole-5-carboxamide]	17 nM	13 nM	22 nM
Cc1cc(C)c(CNC(=O)c2cc(-c3cccnc3)c3c(c2C)OC(C)([C@H]2CC[C@H](N(C)C)CC2)O3)c(=O)[nH]1 (relative stereo) [Example 64, 2-[trans-4-(Dimethylamino)cyclohexyl]-N-[(4,6-dimethyl-2-oxo-1,2-dihydropyridin-3-yl)methyl]-2,4-dimethyl-7-(3-pyridyl)-1,3-benzodioxole-5-carboxamide]	22 nM	6.8 nM	14 nM
Cc1cc(C)c(CNC(=O)c2cc(-c3cnn(C)c3)c3c(c2C)OC(C)([C@H]2CC[C@H](N(C)C)CC2)O3)c(=O)[nH]1 (relative stereo) [Example 65, 2-[trans-4-(Dimethylamino)cyclohexyl]-N-[(4,6-dimethyl-2-oxo-1,2-dihydropyridin-3-yl)methyl]-2,4-dimethyl-7-(1-methylpyrazol-4-yl)-1,3-benzodioxole-5-carboxamide hydrochloride]	23 nM	13 nM	18 nM
C=Cc1cc(C(=O)NCc2c(C)cc(C)[nH]c2=O)c(C)c2c1OC(C)([C@H]1CC[C@H](N(C)C)CC1)O2 (relative stereo) [Example 66, 2-[trans-4-(Dimethylamino)cyclohexyl]-N-[(4,6-dimethyl-2-oxo-1,2-dihydropyridin-3-yl)methyl]-2,4-dimethyl-7-vinyl-1,3-benzodioxole-5-carboxamide]	27 nM	1.7 nM	22 nM
C#Cc1cc(C(=O)NCc2c(C)cc(C)[nH]c2=O)c(C)c2c1OC(C)([C@H]1CC[C@H](N(C)C)CC1)O2 (relative stereo) [Example 67, 2-[trans-4-(Dimethylamino)cyclohexyl]-N-[(4,6-dimethyl-2-oxo-1,2-dihydropyridin-3-yl)methyl]-7-ethynyl-2,4-dimethyl-1,3-benzodioxole-5-carboxamide]	17 nM	1 nM	19 nM
Cc1cc(C)c(CNC(=O)c2cc(C3CC3)c3c(c2C)OC(C)([C@H]2CC[C@H](N(C)C)CC2)O3)c(=O)[nH]1 (relative stereo) [Example 68, 7-Cyclopropyl-2-[trans-4-(dimethylamino)cyclohexyl]-N-[(4,6-dimethyl-2-oxo-1,2-dihydropyridin-3-yl)methyl]-2,4-dimethyl-1,3-benzodioxole-5-carboxamide]	29 nM	1.6 nM	18 nM
Cc1cc(C)c(CNC(=O)c2cc(-c3ccnc(N4CCN(C)CC4)c3)c3c(c2C)OC(C)([C@H]2CC[C@H](N(C)C)CC2)O3)c(=O)[nH]1 (relative stereo) [Example 69, 2-[trans-4-(Dimethylamino)cyclohexyl]-N-[(4,6-dimethyl-2-oxo-1,2-dihydropyridin-3-yl)methyl]-2,4-dimethyl-7-[2-(4-methylpiperazin-1-yl)-4-pyridyl]-1,3-benzodioxole-5-carboxamide]	32 nM	29 nM	24 nM
Cc1cc(C)c(CNC(=O)c2cc(-c3cncs3)c3c(c2C)OC(C)([C@H]2CC[C@H](N(C)C)CC2)O3)c(=O)[nH]1 (relative stereo) [Example 70, 2-[trans-4-(Dimethylamino)cyclohexyl]-N-[(4,6-dimethyl-2-oxo-1,2-dihydropyridin-3-yl)methyl]-2,4-dimethyl-7-thiazol-5-yl-1,3-benzodioxole-5-carboxamide hydrochloride]	38 nM	4.3 nM	26 nM
Cc1cc(C)c(CNC(=O)c2cc(C3=CCN(C)CC3)c3c(c2C)OC(C)([C@H]2CC[C@H](N(C)C)CC2)O3)c(=O)[nH]1 (relative stereo) [Example 71, 2-[trans-4-(Dimethylamino)cyclohexyl]-N-[(4,6-dimethyl-2-oxo-1,2-dihydropyridin-3-yl)methyl]-2,4-dimethyl-7-(1-methyl-3,6-dihydro-2H-pyridin-4-yl)-1,3-benzodioxole-5-carboxamide]	43 nM	99 nM	19 nM
CC(=O)c1cc(C(=O)NCc2c(C)cc(C)[nH]c2=O)c(C)c2c1OC(C)([C@H]1CC[C@H](N(C)C)CC1)O2 (relative stereo) [Example 72, 7-Acetyl-2-[trans-4-(dimethylamino)cyclohexyl]-N-[(4,6-dimethyl-2-oxo-1,2-dihydropyridin-3-yl)methyl]-2,4-dimethyl-1,3-benzodioxole-5-carboxamide hydrochloride]	76 nM	13 nM	17 nM
CCc1cc(C)[nH]c(=O)c1CNC(=O)c1cc(-c2ccc(N3CCN(CC)CC3)nc2)c2c(c1C)OC(C)([C@H]1CC[C@H](N(C)C)CC1)O2 (relative stereo) [Example 73, 2-[trans-4-(Dimethylamino)cyclohexyl]-N-[(4-ethyl-6-methyl-2-oxo-1,2-dihydropyridin-3-yl)methyl]-7-[6-(4-ethylpiperazin-1-yl)-3-pyridyl]-2,4-dimethyl-1,3-benzodioxole-5-carboxamide hydrochloride]	12 nM	6.1 nM	22 nM
CCCc1cc(C)[nH]c(=O)c1CNC(=O)c1cc(-c2ccc(N3CCN(CC)CC3)nc2)c2c(c1C)OC(C)([C@H]1CC[C@H](N(C)C)CC1)O2 (relative stereo) [Example 74, 2-[trans-4-(Dimethylamino)cyclohexyl]-7-[6-(4-ethylpiperazin-1-yl)-3-pyridyl]-2,4-dimethyl-N-[(6-methyl-2-oxo-4-propyl-1,2-dihydropyridin-3-yl)methyl]-1,3-benzodioxole-5-carboxamide]	13 nM	23 nM	29 nM
CCc1cc(C)[nH]c(=O)c1CNC(=O)c1cc(-c2cnn(C)c2)c2c(c1C)OC(C)([C@H]1CC[C@H](N(C)C)CC1)O2 (relative stereo) [Example 75, 2-[trans-4-(Dimethylamino)cyclohexyl]-N-[(4-ethyl-6-methyl-2-oxo-1,2-dihydropyridin-3-yl)methyl]-2,4-dimethyl-7-(1-methylpyrazol-4-yl)-1,3-benzodioxole-5-carboxamide hydrochloride]	21 nM	11 nM	26 nM

Reference: patent US10954219B2, “1,3-benzodioxole derivative” (DAIICHI SANKYO COMPANY, LIMITED, priority 2014, dated 2021)
